In brackets after ≈: the same amount, converted by molar mass.
Columns and labels:
[1] = molecular target: Matrix metalloproteinase-9 (Homo sapiens, UniProt P14780); test: Inhibition of human gelatinase B, MMP9
[2] = molecular target: Stromelysin-1 (Homo sapiens, UniProt P08254); test: Inhibition of human stromelysin-1, MMP-3
[3] = Solubility was determined; format: physicochemical
[4] = Partition coefficient (logD); format: physicochemical; settings: octanol/water
[5] = species: Bos taurus; test: Effective activity in protecting bovine nasal cartilage explants against degradation induced by interleukin 1-alpha in efficacy experiments in vitro; format: functional
[6] = molecular target: Collagenase; test: Inhibition of human collagenase (MMP1); format: protein assay
[7] = Oral bioavailability in rat; format: ADME, organism-based; settings: in vivo

Sequence of Matrix metalloproteinase-9 (P14780 whole entry): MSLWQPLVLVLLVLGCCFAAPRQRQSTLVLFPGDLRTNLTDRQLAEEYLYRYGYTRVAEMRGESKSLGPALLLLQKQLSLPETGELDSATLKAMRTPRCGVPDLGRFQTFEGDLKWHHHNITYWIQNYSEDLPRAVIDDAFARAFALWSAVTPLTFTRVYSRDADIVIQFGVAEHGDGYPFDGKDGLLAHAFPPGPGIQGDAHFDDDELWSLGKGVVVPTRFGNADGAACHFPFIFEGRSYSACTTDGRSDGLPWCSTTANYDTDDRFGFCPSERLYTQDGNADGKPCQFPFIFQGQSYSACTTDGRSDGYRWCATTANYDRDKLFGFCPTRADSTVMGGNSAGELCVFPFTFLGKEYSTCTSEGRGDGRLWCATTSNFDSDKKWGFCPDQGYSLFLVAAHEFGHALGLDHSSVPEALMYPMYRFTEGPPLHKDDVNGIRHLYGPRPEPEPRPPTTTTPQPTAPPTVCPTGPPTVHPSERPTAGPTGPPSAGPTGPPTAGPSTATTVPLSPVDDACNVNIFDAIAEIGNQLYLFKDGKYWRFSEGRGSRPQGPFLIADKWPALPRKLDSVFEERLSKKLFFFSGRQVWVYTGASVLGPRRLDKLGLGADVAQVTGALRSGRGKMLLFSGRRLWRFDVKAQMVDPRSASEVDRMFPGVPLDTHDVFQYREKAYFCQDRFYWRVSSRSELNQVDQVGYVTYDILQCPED
Sequence of Stromelysin-1 (P08254 whole entry): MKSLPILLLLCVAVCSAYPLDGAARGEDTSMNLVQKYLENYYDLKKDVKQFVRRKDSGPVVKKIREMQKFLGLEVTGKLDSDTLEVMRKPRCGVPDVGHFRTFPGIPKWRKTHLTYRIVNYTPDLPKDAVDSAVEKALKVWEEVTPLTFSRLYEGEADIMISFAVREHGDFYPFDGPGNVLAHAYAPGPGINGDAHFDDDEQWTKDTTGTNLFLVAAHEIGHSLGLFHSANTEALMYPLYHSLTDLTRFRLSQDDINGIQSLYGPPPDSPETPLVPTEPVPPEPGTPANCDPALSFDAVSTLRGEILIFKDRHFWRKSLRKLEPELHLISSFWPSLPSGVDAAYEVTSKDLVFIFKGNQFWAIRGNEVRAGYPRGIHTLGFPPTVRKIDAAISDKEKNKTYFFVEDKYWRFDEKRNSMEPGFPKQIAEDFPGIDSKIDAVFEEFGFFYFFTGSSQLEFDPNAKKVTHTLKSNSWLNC

| SMILES | IC50 [1] [nM] | IC50 [2] [nM] | solubility [3] [mg/mL] | logD [4] | IC50 [5] [nM] | IC50 [6] [nM] | bioavailability [7] [%] |
| --- | --- | --- | --- | --- | --- | --- | --- |
| CC(C)C[C@@H](C(=O)N1CCCCC1)[C@@H](CN1C(=O)N(C)C(C)(C)C1=O)C(=O)NO | 237 | 2180 | > 100 | 0.6 | < 100 | 10.1 | 30 |
| CNC(=O)[C@H](NC(=O)[C@@H](CC(=O)NO)CC(C)C)C(C)(C)C | 10.4 | 160 | 0.8 (≈ 2.54 mM) | – | – | 4.9 | 3 |
| CN1C(=O)N(C[C@@H](C(=O)NO)[C@@H](CC2CCCC2)C(=O)N2CCCCC2)C(=O)C1(C)C | 59 | – | 73 (≈ 167 mM) | 0.6 | < 100 | – | 25 |
| CNC(=O)[C@H](NC(=O)[C@H](CC(C)C)[C@@H](C)C(=O)NO)C(C)(C)C | 2.4 | 47 | – | – | – | 2.6 | 2.7 |
| CNC(=O)[C@H](NC(=O)[C@H](CC(C)C)[C@@H](CN1C(=O)c2ccccc2C1=O)C(=O)NO)C(C)(C)C | 4.3 | 9.1 | – | – | – | – | 1 |
| CNC(=O)[C@H](NC(=O)C(CC(C)C)C(CN1C(=O)N(C)C(C)(C)C1=O)C(=O)NO)C(C)(C)C (single isomer, unassigned) | 2.8 | – | – | – | – | 1 | 1.5 |

Source: ChEMBL document CHEMBL1130523, “Design and synthesis of the cartilage protective agent (CPA, Ro32-3555)” (Bioorg Med Chem Lett, 1997)
